Where two headings read alike, the source gives them in different places.
Tests used:
HCT116 colon cancer cell = HCT116 colon cancer cell proliferation (xCELLigence); assay type: cell-based, human; settings: Homo sapiens, HCT-116
Method: Cellular proliferation assays are conducted in HCT116 CRC cells in vitro, using the Roche XCelligence method. Concentration-response curves with the various AOAA analogs are prepared (concentration range: 1, 3, 10, 100, 300 and 600 μM). AOAA is used as the reference control, which, according to preliminary data, has an IC50 of approximately 300 μM. Control proliferation studies in the non-carcinogenic colonic epithelial cell line NCM356 are used to confirm cancer-cell selectivity. Since the NCM356 cells contain low levels of CBS, based on previous studies it is expect that AOAA (and its prodrugs) will only exert modest antiproliferative effects in these cells. Proliferation-inhibitory effects of the AOAA prodrugs in NCM356 cells indicate CBS-independent pharmacological actions. A collection of human colorectal tumor tissue samples (and surrounding non-cancerous tissue) are used to test the conversion of the AOAA prodrugs to AOAA in a number of cancer samples.
Cellular migration and invasion assays were performed as described (Chao et al. (1996) Cancer Res. 56:4811-19). Briefly, 10^5 cells were suspended in serum-free media containing 0.1% BSA and then added to 6.5 mm Transwell chambers ([…]) uncoated (migration assay) or coated with a thin layer (45 μl) of growth factor reduced matrigel (cell invasion assay). Cells were allowed to migrate toward the bottom chamber containing fibroblast (NIH-3T3 cells) conditioned media at 37° C. for 6 or 24 h for cell migration and invasion, respectively. Migrated and invaded cells were then fixed in Carson's fixative, stained in 0.33% toluidine blue and quantified by visual counting. For the HCT116-EAhy926 co-culture experiment, the cancer cell line was grown to confluence in the bottom wells of the transwell chambers and then endothelial cell migration was assessed (Coletta et al. (2012) Proc Natl Acad Sci USA. 109:9161-66). For assessment of colon cell proliferation, the xCELLigence system (Roche) was used (Szabo and Papapetropoulos (2011) Br J Pharmacol. 164:853-65).
For assessment of cell proliferation, the xCELLigence system (Roche) was used. Briefly, HCT116 cells were cultured until approximately 70% confluence. Cells were then detached by Trypsin-EDTA and resuspended in fresh culture media at a concentration of 30,000 cells/ml. 200 μl of cell suspension was added to each well (6,000 cells/well) of a E-plate 96, a specially designed 96-well microtiter plate containing interdigitated microelectrodes to non-invasively monitor the cell proliferation by measuring the relative change in the electrical impedance of the cell monolayer, a unitless parameter named cell index (CI). Cells were then treated with YD02-51 and proliferation was monitored for 48 hours.

[1] = tested on: human endothelial cells (EAhy926); assay: Endothelial cell migration in co-culture with HCT116; assay type: cell-based; settings: 4 hours at 37° C.
Method: FIG. 3. […] (A, B) The lentiviral shRNA vectors targeting CBS (shCBS) and CSE (shCSE) were transfected into HCT116 cells. A non-targeting sequence was used as control (shNT). […] Following CBS and CSE silencing, cells were seeded at the density of 3000 cells/well in xCELLigence plates and proliferation was monitored for 36 hours. […] The NCM356 cells were infected overnight with a CBS expressing adenovirus (Ad-CBS, 10 multiplicity of infection (MOI)) or its control, a green fluorescent protein (Ad-GFP). The culture media was then replaced and cells were seeded in XCelligence plates at 3000 cells/well. Cell proliferation was then measured real-time over 36 hours. […] (H, I) The effect of AOAA and NaHS was also tested on HCT116 cell migration (H) and invasion (I). […]
Cellular migration and invasion assays were performed as described (Chao et al. (1996) Cancer Res. 56:4811-19). […] Migrated and invaded cells were then fixed in Carson's fixative, stained in 0.33% toluidine blue and quantified by visual counting. For the HCT116-EAhy926 co-culture experiment, the cancer cell line was grown to confluence in the bottom wells of the transwell chambers and then endothelial cell migration was assessed (Coletta et al. (2012) Proc Natl Acad Sci USA. 109:9161-66).

CBS = target: T1, CBS (Homo sapiens, UniProt P35520); design: These studies used full-length human CBS enzyme; made in house; host or cells: E. coli BL21 (DE3) Codon Plus; settings: cited from earlier work
T1 sequence (P35520 1-551): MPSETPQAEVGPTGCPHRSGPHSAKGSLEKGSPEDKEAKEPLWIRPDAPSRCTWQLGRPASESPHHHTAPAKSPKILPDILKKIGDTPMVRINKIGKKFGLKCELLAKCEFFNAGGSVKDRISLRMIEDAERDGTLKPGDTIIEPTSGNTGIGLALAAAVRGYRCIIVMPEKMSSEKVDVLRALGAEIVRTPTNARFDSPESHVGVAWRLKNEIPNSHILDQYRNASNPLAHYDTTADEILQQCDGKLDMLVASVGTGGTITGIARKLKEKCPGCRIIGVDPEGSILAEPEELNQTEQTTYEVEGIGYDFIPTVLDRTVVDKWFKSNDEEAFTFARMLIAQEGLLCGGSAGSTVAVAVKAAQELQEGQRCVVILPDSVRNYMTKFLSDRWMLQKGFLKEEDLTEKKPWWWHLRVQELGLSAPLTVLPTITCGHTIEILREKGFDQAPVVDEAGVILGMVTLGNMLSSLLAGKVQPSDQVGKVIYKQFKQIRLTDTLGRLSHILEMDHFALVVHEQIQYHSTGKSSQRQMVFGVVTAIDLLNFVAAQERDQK

Structure (SMILES): NOCC(=O)O [AOAA, aminooxyacetic acid]
- inhibition at 300 µM (HCT116 colon cancer cell; 300 μM, HCT116): 21%
- IC50 (HCT116 colon cancer cell; read-out: IC50 (μM), inhibition of HCT116 colon cancer cell proliferation): 1780 µM
- IC50 (HCT116 colon cancer cell; reference control, preliminary data, XCelligence, read-out: IC50, HCT116 proliferation (preliminary data)): ~300 µM
- HCT116-induced endothelial cell migration [1]: reduced
- concentrations exerting inhibitory effects on human recombinant CBS (CBS): low micromolar concentrations
